Data on one molecule can be found in patent US20080009546A1 (Chevron U.S.A. Inc., priority 2005, published 2008).

One assay has as its target NMDA receptor. Nature of the assay: [3H]MK-801 binding assay, NMDA receptors in guinea pig brain membranes.

Like-named read-outs stand apart in the source and are kept apart here.

As usually defined, the Ki is a measure of affinity in units of concentration, obtained from inhibition or displacement.

With `CC12CC3CC(C)(C1)CC(N)(C3)C2` [memantine, 1-amino-3,5-dimethyladamantane, reference compound], on NMDA receptor ([3H]MK-801 (1 nM), guinea pig brain membrane preparation, read-out: Ki (binding affinity)), the inhibition constant (Ki) is 0.73 µM. Moreover, in the assay with NMDA receptor (compared to that of Memantine), the Relative affinity is listed as 1 ^. The Ki at NMDA receptor (standard compounds at the NMDA site (Table 27), read-out: Ki) is 0.733 ± 0.13 µM. In the assay on C57/BL6 male mice (10 mg/kg i.p.), this molecule gave an Extension rate of 0.67 and a Mortality rate of 0. Moreover, in the assay on C57/BL6 male mice (10 mg/kg i.p., 6 mice), the “# of deaths” value was 0 and the “# of extensions” value is given as 4. Besides, the MES-induced death entry in the assay on C57/BL6 male mice (low dose 10 mg/kg i.p., mice) is “protected all mice from death”.
